We go through 3 compounds from patent US20100035926A1, “PYRAZOLE DERIVATIVES AS NON-STEROIDAL GLUCOCORTICOID RECEPTOR LIGANDS” (priority 2006, published 2010).

One data set deals with T1, glucocorticoid receptor (Homo sapiens, UniProt P04150).
T1 construct: a partially purified full length glucocorticoid receptor
T1 sequence (P04150 1-777): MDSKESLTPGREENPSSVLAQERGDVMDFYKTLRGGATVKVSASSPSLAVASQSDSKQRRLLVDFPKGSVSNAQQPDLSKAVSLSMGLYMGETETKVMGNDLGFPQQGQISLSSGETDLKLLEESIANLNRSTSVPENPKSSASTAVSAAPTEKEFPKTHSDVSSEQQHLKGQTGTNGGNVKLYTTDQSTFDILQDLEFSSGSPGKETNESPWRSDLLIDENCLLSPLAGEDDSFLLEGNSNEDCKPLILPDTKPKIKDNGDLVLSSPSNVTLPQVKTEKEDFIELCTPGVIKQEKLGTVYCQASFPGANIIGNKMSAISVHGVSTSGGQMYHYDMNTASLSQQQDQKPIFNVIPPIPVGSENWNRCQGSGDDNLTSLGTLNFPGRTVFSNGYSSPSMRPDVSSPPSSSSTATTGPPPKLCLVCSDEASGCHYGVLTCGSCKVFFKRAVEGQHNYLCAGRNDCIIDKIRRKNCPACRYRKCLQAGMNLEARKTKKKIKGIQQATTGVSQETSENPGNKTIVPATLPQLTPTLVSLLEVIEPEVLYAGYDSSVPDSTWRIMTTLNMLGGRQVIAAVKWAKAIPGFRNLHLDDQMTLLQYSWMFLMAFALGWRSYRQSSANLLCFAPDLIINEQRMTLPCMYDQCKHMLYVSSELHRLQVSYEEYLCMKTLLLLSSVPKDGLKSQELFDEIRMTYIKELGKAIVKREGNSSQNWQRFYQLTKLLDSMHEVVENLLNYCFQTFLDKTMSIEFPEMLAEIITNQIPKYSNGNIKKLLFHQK
The experiment in a line: Glucocorticoid Receptor Binding Assay (fluorescence polarisation, displacement of Alexa 555 labelled dexamethasone derivative). As to conditions: at least once in this assay; read-out: glucocorticoid binding pIC50 (converted). The essentials:
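Partially purified full-length GR incubated with test compound and fluorescent dexamethasone plus GR-stabilising buffer components, 2 hr at room temperature in the dark. Binding scored as displacement of tracer, read as decrease in fluorescence polarisation.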
A general note: In fluorescence polarisation assays a small probe gives low polarisation when free and higher when bound to something large.

The next data set deals with T2, Progesterone Receptor (Homo sapiens, UniProt P06401).
T2 construct: expressed in transfected cells; host or cells: CV-1 cells transduced with PRb-BacMam and MMTV-BacMam
T2 sequence (P06401 1-933): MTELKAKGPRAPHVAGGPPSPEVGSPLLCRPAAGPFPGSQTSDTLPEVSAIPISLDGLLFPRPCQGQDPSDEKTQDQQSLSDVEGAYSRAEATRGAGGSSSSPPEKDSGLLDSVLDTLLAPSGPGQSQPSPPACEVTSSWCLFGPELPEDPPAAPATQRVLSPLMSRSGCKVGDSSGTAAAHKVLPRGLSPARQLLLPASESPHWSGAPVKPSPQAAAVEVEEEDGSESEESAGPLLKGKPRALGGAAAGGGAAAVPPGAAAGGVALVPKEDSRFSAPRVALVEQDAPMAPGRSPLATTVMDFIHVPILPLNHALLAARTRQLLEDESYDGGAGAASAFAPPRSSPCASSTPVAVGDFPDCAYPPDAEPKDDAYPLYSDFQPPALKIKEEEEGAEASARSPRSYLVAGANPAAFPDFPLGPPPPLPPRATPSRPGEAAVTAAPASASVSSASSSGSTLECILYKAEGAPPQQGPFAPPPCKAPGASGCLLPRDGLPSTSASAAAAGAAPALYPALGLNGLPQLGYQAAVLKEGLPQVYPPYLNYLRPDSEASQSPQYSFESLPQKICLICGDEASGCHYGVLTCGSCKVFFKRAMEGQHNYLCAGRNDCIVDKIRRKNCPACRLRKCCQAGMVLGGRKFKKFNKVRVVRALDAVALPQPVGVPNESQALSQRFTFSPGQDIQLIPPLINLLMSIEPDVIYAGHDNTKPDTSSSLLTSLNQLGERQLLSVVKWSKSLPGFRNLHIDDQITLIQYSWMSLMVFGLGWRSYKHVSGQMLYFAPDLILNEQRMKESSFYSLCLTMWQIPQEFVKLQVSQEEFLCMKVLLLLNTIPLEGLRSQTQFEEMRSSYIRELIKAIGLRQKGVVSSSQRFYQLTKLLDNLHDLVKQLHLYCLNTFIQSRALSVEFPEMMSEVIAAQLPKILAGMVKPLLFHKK
The experiment in a line: Assay for Progesterone Receptor Agonist Activity (CV-1 cells, PRb-BacMam, MMTV-BacMam). Format: cell-based. As to conditions: at least once in this assay, read-out: progesterone receptor agonist pEC50 (converted).

Data set [1] in a line: Assay for Brain Penetrance. It counts as in vivo. The following applies: brain and plasma, rat, single intravenous dose 1 mg/kg, read-out: brain to plasma ratio. How it is done: Each rat received a single intravenous dose at a level of 1 mg/kg. The dose was formulated in 10% DMSO/50% PEG200/40% sterile water. Terminal blood samples were taken at 5 or 15 mins after dosing, by cardiac puncture following anaesthesia with isofluorane. The brains were removed at the same time point.
The compounds were extracted from 20 μL plasma by protein precipitation using 120 μL acetonitrile containing an analogue compound as an internal standard. The filtered extracts were collected into a 96 well plate and were diluted with an equal volume of 10% acetonitrile containing 0.1% formic acid in water (v/v). The plate was then mixed on a plate shaker for at least 5 mins before analysis by LC-MS/MS against a calibration line prepared in control plasma.
Each brain was weighed, then homogenised in 3 ml acetonitrile:water (10:90v/v). The compounds were extracted from 200 μL of the resulting homogenate by protein precipitation using 600 μL acetonitrile containing an analogue compound as an internal standard. The extracts were centrifuged and 150 μl of each was filtered and transferred to a 96 well plate. The aliquot was diluted with 10% acetonitrile containing 0.1% formic acid in water (v/v). The plate was mixed on a plate shaker for at least 5 mins before analysis by LC-MS/MS against a calibration line prepared in control brain homogenate.

Consider `Nc1c(C(=O)NCC(O)(CN(CCF)C(=O)c2ccccc2)C(F)(F)F)cnn1-c1ccc(F)cc1` (racemic) [Example 1 (racemic), 5-Amino-1-(4-fluorophenyl)-N-(3,3,3-trifluoro-2-{[(2-fluoroethyl)(phenylcarbonyl)amino]methyl}-2-hydroxypropyl)-1H-pyrazole-4-carboxamide], for which the IC50 on glucocorticoid receptor was less than 1000 nM. Moreover, the EC50 at Progesterone Receptor was more than 1000 nM. Besides, the Kp at 5 min in data set [1] is not below 0.1.

As to `Nc1c(C(=O)NCC(O)(CN(CCF)C(=O)c2ccccc2F)C(F)(F)F)cnn1-c1ccc(F)cc1` (racemic) [Example 2 (racemic), 5-Amino-1-(4-fluorophenyl)-N-[3,3,3-trifluoro-2-([(2-fluoroethyl)[(2-fluorophenyl)carbonyl]amino]methyl)-2-hydroxypropyl]-1H-pyrazole-4-carboxamide], at glucocorticoid receptor, the IC50 is less than 1000 nM. The EC50 on Progesterone Receptor was more than 1000 nM. Also, in data set [1], the Kp at 5 min is not below 0.1.

With `CCN(CC(O)(CNC(=O)c1cnn(-c2ccc(F)cc2)c1N)C(F)(F)F)C(=O)c1cccc(F)c1F` (racemic) [Example 5 (racemic), 5-Amino-N-(2-{[[(2,3-difluorophenyl)carbonyl](ethyl)amino]methyl}-3,3,3-trifluoro-2-hydroxypropyl)-1-(4-fluorophenyl)-1H-pyrazole-4-carboxamide], on glucocorticoid receptor, the IC50 is less than 1000 nM. Moreover, the EC50 at Progesterone Receptor was more than 1000 nM. The Kp at 5 min in data set [1] was not below 0.1.
